{"source": "patent US12564580B2", "about": "“Mitochondria-targeted isoketal/isolevuglandin scavengers and uses thereof” (Vanderbilt University, priority 2020, dated 2026)", "key": {"aortic superoxide": {"test_system": "aortic superoxide", "experiment": "Aortic superoxide by HPLC (mitoSOX, DHE) in angiotensin II-infused mice", "format": "in vivo, mouse", "description": "(§1) FIGS. 12A-D show the effect of mito2HOBA supplementation on mitochondrial superoxide (A), vascular superoxide (B), endothelial nitric oxide (C) and endothelial-dependent relaxation (D) in angiotensin II-infused mice. Mitochondrial and vascular O2⋅ was measured by mitochondria-targeted superoxide probe mitoSOX (1 μM) or untargeted superoxide probe DHE (50 μM) using HPLC.46 Endothelial nitric oxide was analyzed by NO spin trap Fe(DETC)2 and ESR.47 C57B1/6J mice were infused with Ang II and mito2HOBA was provided in the drinking water (0.1 g/L). […] Results are mean±SEM. *P<0.01 vs Sham, **P<0.01 vs Ang II (n=6).\nMouse aortic segments were loaded with DHE (50 μM) or mitochondria-targeted mitoSOX (1 μM) in KHB buffer by 30-minute incubation in a tissue culture incubator at 37° C. […] The tissue homogenate was passed through a 0.22 μm syringe filter and methanol filtrates were analyzed by HPLC according to previously published protocols. The superoxide specific product 2-hydroxyethidium was detected using a C-18 reverse-phase column (Nucleosil 250 to 4.5 mm) and a mobile phase containing 0.1% trifluoroacetic acid and an acetonitrile gradient (from 37% to 47%) at a flow rate of 0.5 ml/min. 2-Hydroxyethidium was quantified by fluorescence detector using an emission wavelength of 580 nm and an excitation of 480 nm as described previously."}, "mPTP": {"test_system": "mPTP", "format": "in vivo", "settings": "treatment of Ang II-infused mice with mito2HOBA"}, "[1]": {"test_system": "C57Bl/6J mice, Ang II-induced hypertension", "experiment": "Blood pressure in angiotensin II model of hypertension (tail-cuff and telemetry)", "format": "in vivo, mouse", "source_text": "FIGS. 10A-D show the effect of mito2HOBA on angiotensin II-induced hypertension and accumulation of mitochondrial isoLGs protein adducts. (A) Blood pressure tail-cuff measurements in male Sham or angiotensin II-infused mice supplied with mito2HOBA in drinking water (0.1 g/L) or equimolar amount of untargeted analog 2HOBA (0.17 mmol/L). (B) Telemetry studies of blood pressure in angiotensin II-infused mice supplied with mito2HOBA or plain water as a vehicle. (C) Representative LC/MS/MS chromatograms of isoLG-Lysyl-Lactam adduct; (D) isoLG-Lys-Lactam levels in kidney mitochondria isolated from Sham or angiotensin II-infused mice supplied with mito2HOBA. Results are mean±SEM. *P<0.01 vs Sham, **P<0.01 vs Ang II (n=8).\nHypertension was induced by angiotensin II ([…]) as described previously. To test the therapeutic potential of scavenging of mitochondrial isoLGs, wild-type C57B1/6J male and female mice (Jackson Labs) received saline or angiotensin II minipump placement, and provided with the plain water (vehicle) or mito2HOBA in the drinking water (0.1 g/liter). Blood pressure was monitored by the telemetry and tail-cuff measurements as previously described. The Vanderbilt Institutional Animal Care and Use Committee approved the procedures (Protocol M1700207). Simple randomization was used to select animals for sham, angiotensin II or mito2HOBA groups for equal chance of being allocated to treatment groups.\nTo test a functional role of mitochondrial isoLGs in hypertension, we used an Ang II model of hypertension, and monitored blood pressure by tail-cuff (FIG. 10A) and telemetry (FIG. 10B). […] Infusion of wild-type C57B1/6J mice with Ang II (0.7 mg/kg/day) increased systolic blood pressure to 162 mm Hg."}, "[2]": {"experiment": "Reaction with the IsoLG analog 4-oxopentanal", "format": "physicochemical", "settings": "% of 2HOBA itself", "source_text": "In order to confirm the IsoLG scavenging properties of mito2HOBA, the present inventors studied its reaction with the IsoLG analog 4-oxopentanal as the present inventors described previously. Mito2HOBA was highly reactive with 4-oxopentanal with a reaction rate constant that was about 50% of 2HOBA itself (Supplemental FIG. 1S). […] The overall rate of IsoLG scavenging in physiological conditions depends both on the rate constant and the local concentration of the scavenger (V=k*[mito2HOBA]*[IsoLG]). […] This will result in low level of mito2HOBA in cytoplasm but high mitochondrial accumulation leading to specific scavenging of IsoLG in mitochondria (FIG. 3)."}, "[3]": {"test_system": "SOD2 acetylation in human arterioles", "experiment": "SOD2 acetylation in human arterioles treated ex vivo (Western blot)", "format": "cell-based", "settings": "arterioles from hypertensive subjects, 0.5 μM, 24 hours, DMEM", "description": "FIGS. 8A-D show Western blots of mitochondrial isoLGs (A) in human arterioles from normotensive and hypertensive subjects (n=5), (B) development of mitochondria-targeted isoLG scavenger mito2HOBA and (C, D) SOD2 acetylation in human arterioles isolated from normotensive and hypertensive subjects and treated ex vivo with mito2HOBA (0.5 μM, 24 hours, DMEM). Data were normalized by Complex I levels (Sham is 100%). Data are mean±SEM. *P<0.01 vs Normotensive Sham, **P<0.01 vs Hypertensive (n=5).\nArterioles (100 to 200-μm diameter) were harvested from human mediastinal fat obtained from patients during cardiac surgery enrolled in the Risk of Oxygen during Cardiac Surgery (ROCS) randomized clinical trial with essential hypertension (BP>140/90 mmHg) and normotensive subjects as previously described for Western blot analysis of SOD2 and SOD2 acetylation. Full informed consent was obtained for all tissue samples.\nHypertension is associated with inactivation of mitochondrial deacetylase Sirt3 and hyperacetylation of mitochondrial superoxide dismutase (SOD2). To study the potential role of mitochondrial isoLGs in Sirt3 inactivation, we developed the mitochondria-targeted isoLG scavenger mito2HOBA (FIG. 8B). Mito2HOBA selectively accumulates in the mitochondria due to its lipophilic cation triphenylphosphonium. […]"}, "endothelial nitric oxide": {"test_system": "endothelial nitric oxide", "experiment": "Aortic nitric oxide by ESR and Fe(DETC)2 in angiotensin II-infused mice", "format": "in vivo, mouse", "settings": "Ang II plus mito2HOBA", "description": "as §1\nNitric oxide production in aortas was quantified by ESR and colloid Fe(DETC)2 as we have described previously. All ESR samples were placed in quartz Dewar (Corning, New York, NY) filled with liquid nitrogen. ESR spectra were recorded using an EMX ESR spectrometer (Bruker Biospin Corp., Billerica, MA) and a super high Q microwave cavity. The ESR settings were as follows: field sweep, 160 Gauss; microwave frequency, 9.42 GHz; microwave power, 10 milliwatts; modulation amplitude, 3 Gauss; scan time, […]; time constant, 5.2 sec; and receiver gain, 60 dB (n=4 scans)."}, "complex I/complex II": {"test_system": "complex I/complex II", "settings": "kidney mitochondria after LPS treatment, mito2HOBA supplementation", "protocol": "Three months old C57BL/6J mice (25-28 g) were supplemented with mito2HOBA (drinking water, 0.1 g/L) for 72 hours prior to LPS injection (25 μg/g). Complex I/Complex II activity ratio is expressed as a % compared to Control (100%). […] Data are mean±STD *P<0.01 vs LPS (n=6), *P<0.01 vs LPS (n=10).\nForty C57BL/6J 3-month old mice were equally divided in four groups: Sham (Control), LPS-injected mice (LPS), mice supplemented with mito2HOBA (0.1 g/Liter) in the drinking water (mito2HOBA), and LPS-injected mice pretreated with mito2HOBA in the drinking water (LPS+mito2HOBA). […]\nMitochondrial complex I and complex II activities were evaluated after 24 hours of LPS injection as described above. […]\nRespiration rates were measured using Fluorescence Lifetime Micro Oxygen Monitoring System (Instech Laboratories, Inc.). […] OXPHOS specific enzyme activities in submitochondrial particles (SMP) were measured using a Varian Cary 300 Bio UV/Vis spectrophotometer with temperature controlling cell holder. […] Complex I activity was monitored in triplicate samples as the reduction of 10 μM decylubiquinone at 272 nm by 15 μg of mitochondrial protein with 40 μM NADH. […] Complex II activity was measured by monitoring the absorbance at 600 nm during the oxidation of 50 μM DCPIP as artificial electron acceptor by 65 μM ubiquinone in presence of 2 mM KCN and 2 μg/ml rotenone and antimycin A."}}, "data": [{"smiles": "NCc1ccc(OCCCC[P+](c2ccccc2)(c2ccccc2)c2ccccc2)cc1O", "note": "[mito2HOBA]", "values": [{"measurement": "aortic cellular superoxide", "setting": "aortic superoxide; DHE, % compared to Sham control, Ang II plus mito2HOBA (Ang II alone 217%)", "value": 152, "unit": "%"}, {"measurement": "increase in aortic mitochondrial superoxide", "setting": "aortic superoxide; mitoSOX, Ang II plus mito2HOBA", "value": "completely prevented"}, {"measurement": "renal mitochondrial Ca2+-retention capacity", "setting": "mPTP", "value": "completely prevented decline"}, {"measurement": "systolic blood pressure", "setting": "[1]; Ang II 0.7 mg/kg/day, mito2HOBA 0.1 g/L drinking water, tail-cuff and telemetry (Ang II alone 162)", "value": 140, "unit": "mm Hg"}, {"measurement": "blood pressure in control mice", "setting": "[1]; mito2HOBA alone, no Ang II", "value": "did not affect"}, {"measurement": "reaction rate constant with 4-oxopentanal relative to 2HOBA", "setting": "[2]", "value": "about 50%"}, {"measurement": "SOD2 acetylation", "setting": "[3]", "value": "significantly reduced"}, {"measurement": "endothelial nitric oxide", "setting": "endothelial nitric oxide", "value": "completely prevented the decline"}, {"measurement": "complex I/complex II activity ratio", "setting": "complex I/complex II", "value": "completely preserved"}]}]}
